# Where two headings read alike, the source gives them in different places.
# Experiments:
# [1] = system: rats; type: in vivo
# Protocol: (§1) Animals: 8-9 weeks-old rats are used. General procedures for animal care and housing are in accordance with the National Research Council (NRC) Guide for the Care and Use of Laboratory Animals (1996) and the Animal Welfare Standards incorporated in 9 CFR Part 3, 1991.
# Treatment: Rats are treated i.v with FK506 and i.p. with Quercetin. Rats receive daily administrations containing either 0.5 mg/kg or 2 mg/kg of FK506 approximately one hour after the start of the light cycle. Rats are treated 30 minutes prior to FK506 treatment with quercetin at three different concentrations, 10 mg/kg, 25 mg/kg or 200 mg/kg. Subsets of 5 rats per group are used for blood sampling at each time point. Blood is collected for glucose measurement on days 0, 5, 9, and 14.
# [2] = quercetin or a quercetin derivative; cited from earlier work
# [3] = Sulfobutylether-7-β-cyclodextrin quercetin aqueous composition: concentration and storage stability; type: physicochemical; conditions: 10 mg/ml in water with sulfobutylether-7-β-cyclodextrin
# Protocol: The flask is placed in an ice bath. When all of the Captisol is dissolved, 1.24 g of quercetin (Micron Technologies) (equivalent to about 1 g of anhydrous quercetin) is added with stirring. Into the flask, 12 ml of 1 N sodium hydroxide is added over about 5 to 10 minutes. […] Into the flask is then added 10.5 ml of hydrochloric acid over 5 to 10 minutes at a slow enough rate to avoid precipitation. During the addition of the sodium hydroxide and the hydrochloric acid, the temperature is maintained at less than 20° C. DI water is then added to give total volume of 100 ml. This procedure results in a sulfobutylether-7-β-cyclodextrin-quercetin aqueous composition at a concentration of 10 mg/ml (33 mM) in quercetin at a pH of about 7.8.
# [4] = Solubility of quercetin with sulfobutylether-7-β-cyclodextrin and meglumine; type: physicochemical; conditions: Captisol 30% w/v, Meglumine 44 mM, room temperature, about 10 minutes, excess solids removed
# Protocol: Sulfobutylether-7-β-cyclodextrin (Captisol™) is dissolved in water to form a solution at 30% w/v. To the Captisol solution is added Meglumine at a concentration of 44 mM and […] at a concentration of about 20 mg/ml. The solution is stirred at room temperature for about 10 minutes. The solution is separated from any excess solids (e.g. by filtration). The concentration of quercetin in the solution is about 9.2 mg/mL.
# [5] = cited from earlier work
# [6] = system: mouse spleen cells; assay: In vitro LPS assay on spleen cells; type: cell-based; conditions: high ([…]10^6 cells/well) and low (8×10^5 cells/well) cell concentration
# [7] = system: mouse spleen cells; assay: In vitro Con A assay on spleen cells; type: cell-based; conditions: for response of spleen cells to Con A (proliferation): high ([…]10^6 cells/well) and low (8×10^5 cells/well) cell concentration
# Protocol: as §1, with “weeks-old Lewis and Brown Norway male” for “weeks-old”, “are obtained from Charles River Laboratories.” for “are used.”, “housing is” for “housing are”
# Spleens are collected for use in in vitro Con A and LPS assays.
# Spleen cells are treated with Con A in the presence of vehicle, tacrolimus, quercetin or two different concentrations of tacrolimus (10^−8.2 and 10^−8.5 M) and increasing doses of quercetin at a high cell concentration (FIG. 13) or at a low cell concentration (FIG. 14). […] There is no significance difference between the effect of quercetin on tacrolimus induced cell suppression in vitro at the different concentrations used for quercetin. The same results are observed in cultures with low cell concentration (FIG. 14).
# [8] = system: liver transplant patients; conditions: two liver transplant trials; 514 patients tacrolimus and steroids, 515 patients CBIR; cited from earlier work
# [9] = system: LEW responder splenocytes (lymphocyte proliferation); assay: Mixed lymphocyte reaction (MLR) with spleen cells of treated Lewis rats; type: cell-based, rat
# Protocol: as §1, with “weeks-old Lewis and Brown Norway male” for “weeks-old”, “obtained from Charles River Laboratories.” for “used.”
# (§2) Treatment: Lewis rats are treated with different single doses of LNS 0694 i.p. 30 minutes prior to single i.v. injections of tacrolimus at a concentration of 1 mg/kg as described in the table below.
# (§3) Spleens are collected at 4 hr after administration of FK506 for use in the in vitro mixed lymphocyte reaction (MLR) and Con A assays. In addition to treated Lewis rats, spleens are collected from 5 Brown Norway rats (not treated) which are used for the in vitro assay.
# Mixed lymphocyte reactions: A single cell suspension of the spleen of each rat on test (LEW, responder) is prepared with a Dounce homogenizer and wash-medium. The cell suspension is depleted of red blood cells (treatment with NH4CL/Tris buffer) and washed twice with wash medium before resuspending in complete medium (CM; RPMI 1640 with 5% heat-inactivated (30 minutes at 56° C.) normal rat serum (from Lewis rats), 2 mM GlutaMAX, 100 U/ml penicillin and 100 μg/ml streptomycin mixture, and 55 μM 2-mercaptoethanol). A single cell suspension of splenocytes from five Brown Norway rats (BN, stimulators) is prepared with the same method. The BN splenocytes are pooled and irradiated with 1,500-2,000 rad (cesium source) before use.
# Varying numbers of responder cells are mixed with a constant number of stimulators (105) in 96-well, U-bottom cell culture plates to give a final responder:stimulator (R:S) ratio of 10:1, 5:1, 1:1 and 0.5:1 in 200 μl CM. Control wells for each cell suspension contained 10^5 responders alone in medium and 105 pooled, irradiated stimulators alone in medium (separate wells). For a positive proliferative response, each responder (10^5) is treated with 2.5 μg/ml Con A. […]
# The results of the MLR assays [thymidine incorporation as counts per minute (CPM)] are expressed as mean±SD.
# [10] = system: murine or human T cells; conditions: disrupting calcium signaling events that lead to lymphokine production; cited from earlier work
# [11] = system: renal transplant recipients; conditions: cited from earlier work
# [12] = system: heart transplant patients; conditions: target range 5-15 ng/mL, tacrolimus treatment arm, European study; cited from earlier work
# [13] = system: islet; conditions: 0.01 μmol/liter, after 7-d incubation; cited from earlier work
# [14] = Pharmacokinetics of FK 506 in male Lewis rats, whole blood drug levels; type: in vivo; conditions: FK 506 1 mg/kg i.v. with i.p. LNS 0694 at different doses
# Protocol: as §1, with “weeks-old Lewis and Brown Norway male” for “weeks-old”, “are obtained from Charles River Laboratories.” for “are used.”, “housing is” for “housing are”
# Treatment: Lewis rats are treated as described in example 3. Subsets of 3 Lewis rats per group are used for blood sampling at each time point (Groups 2-5) as described in the table below.
# Plasma Blood Sample Collection: Whole blood is collected from the retro-orbital sinus under 60:40 CO2:O2 anesthesia using EDTA as the anticoagulant. Sample collection is performed at 9 time points: 5, 15, and 30 min and 1, 2, 4, 6, 8, & 24 hr after administration of FK 506. Three samples are collected from each rat per group (Groups 2-5). The first 2 samples are collected under anesthesia, after which the animal regains consciousness and is retained until the next collection interval. […]
# Drug levels are determined in collected whole blood samples using a bioanalytical method developed to detect parent drug levels.
# Results: The pharmacokinetics parameters of FK 506 are determined in male Lewis rats after 1 mg/kg i.v. administration alone or in combination with i.p, administration of different doses of LNS 0694 (See FIG. 15).
# [15] = system: LEW responder splenocytes activated with Con A; assay: Con A stimulated proliferation of spleen cells of treated Lewis rats; type: cell-based, rat; conditions: LNS 0694 i.p. before FK 506 1 mg/kg i.v.
# Protocol: as §2, §3
# Varying numbers of responder cells are mixed with a constant number of stimulators (105) in 96-well, U-bottom cell culture plates to give a final responder:stimulator (R:S) ratio of 10:1, 5:1, 1:1 and 0.5:1 in 200 μl CM. Control wells for each cell suspension contained 10^5 responders alone in medium and 105 pooled, irradiated stimulators alone in medium (separate wells). For a positive proliferative response, each responder (10^5) is treated with 2.5 μg/ml Con A.
# Cultures are incubated at 37±° 1 C. for 72±2 hours in 5±1% CO2 humidified air. Each well is pulsed with 1 μCi tritiated thymidine for 18±2 hours before automatic harvesting and analysis in a liquid scintillation counter.
smiles,measurement,setting,value
O=c1c(O)c(-c2ccc(O)c(O)c2)oc2cc(O)cc(O)c12 [quercetin],FK506 induced hyperglycemia,"[1]; FK506 0.5 mg/kg i.v. daily, quercetin i.p. 30 minutes before, FIG. 2",decreases
same,increase of glucose blood levels by FK506,"[1]; FK506 0.5 mg/kg, quercetin 10, 25 and 200 mg/kg",reduced
same,increase of blood glucose (percent change),"[1]; FK506 2 mg/kg + quercetin 10 mg/kg, day 9",60%
same,increase of blood glucose (percent change),"[1]; FK506 2 mg/kg + quercetin 25 mg/kg, day 9",90%
same,percent change of blood glucose,"[1]; FK506 2 mg/kg + quercetin 200 mg/kg, day 9",reduced to the levels similar to rats treated with vehicle alone
same,FK506 induced hyperglycemia,"[1]; FK506 2 mg/kg i.v. daily, quercetin i.p. 30 minutes before, FIG. 1",decreases
same,increase in glucose blood levels by FK506,"[1]; FK506 2 mg/kg, day 5, quercetin 10, 25 and 200 mg/kg",reduced
same,increase of glucose blood levels by FK506,"[1]; FK506 2 mg/kg, day 9, quercetin 10, 25 and 200 mg/kg",reduced
same,FK506 induced hyperglycemia,"[1]; conclusion of Example 4, both FK506 doses",decreases
same,serum half-life,[2],19 to 25 h
same,stability of solution to precipitation,[3],stable for more than two weeks without precipitation
same,concentration of quercetin in the solution,[4],about 9.2 mg/mL
same,stability in solution,[5]; above pH 5,degradation
same,stability in solution,[5]; below pH 3,stable
same,response of spleen cells to LPS (proliferation),[6],no significant effect
same,tacrolimus induced cell suppression in vitro,"[7]; Con A, tacrolimus 10^−8.2 and 10^−8.5 M with increasing doses of quercetin, high cell concentration",does not impair
same,effect of tacrolimus on cells,[7]; conclusion of Example 6,does not alter
same,response of spleen cells to Con A (proliferation),[7],no significant effect
"C=CC[C@@H]1/C=C(\C)C[C@H](C)C[C@H](OC)[C@H]2O[C@@](O)(C(=O)C(=O)N3CCCC[C@H]3C(=O)O[C@H](/C(C)=C/[C@@H]3CC[C@@H](O)[C@H](OC)C3)[C@H](C)[C@@H](O)CC1=O)[C@H](C)C[C@@H]2OC (relative stereo) [tacrolimus, [3S-[3R[E(1S*,3S*,4S*)], 4S*,5R*,8S*,9E,12R*,14R*,15S*,16R*,18S*,19S*,26aR*]]-,6,8,11,12,13,14,15,16,17,18,19,24,25,26,26a-hexadecahydro-5,19-dihydroxy-3-[2-(4-hydroxy-3-methoxycyclohexyl)-1-methylethenyl]-14,16-dimethoxy-4,10,12,18-tetramethyl-8-(2-propenyl)-15,19-epoxy-3H-pyrido[2,1-c][1,4]oxaazacyclotricosine-1,7,20,21(4H,23H)-tetrone, monohydrate]",proportion of patients reporting more than one adverse event,[8],99.8%
same,percent change of glucose blood level,"[1]; rat, in vivo, 0.5 mg/kg",greater increase
same,lymphocyte proliferation in MLR (thymidine incorporation),"[9]; FK 506 1 mg/kg i.v., spleens collected at 4 hr",inhibited
same,inhibitory effect on MLR by R:S ratio,"[9]; FK 506 1 mg/kg i.v., R:S ratios 0.5:1, 1:1, 5:1",stronger inhibitory effect at lower R:S ratios
same,potency relative to CsA,[10],50-100 fold
same,incidence of posttransplant diabetes mellitus (PTDM),[11]; Japan,31.4%
same,incidence of posttransplant diabetes mellitus (PTDM),[11]; western countries,10-30%
same,patients with trough concentrations within the pre-defined target range,[12],74-86%
same,response of spleen cells to LPS (proliferation),[6],inhibits LPS-induced proliferation in a dose dependent manner
same,response of spleen cells to Con A (proliferation),[7],inhibits Con A-induced proliferation in a dose dependent manner
same,"glucose-stimulated insulin secretion, of the control value",[13],32±5%
O=c1c(O)c(-c2ccc(O)c(O)c2)oc2cc(O)cc(O)c12 [LNS 0694],FK 506 inhibitory effect on lymphocyte proliferation in MLR,"[9]; LNS 0694 50, 150, 300 mg/kg i.p. 30 minutes before FK 506 1 mg/kg i.v.",increases FK 506 inhibitory effect in a dose-dependent manner
same,peripheral bioavailability of FK506,[14],increases the peripheral bioavailability of FK506 in a dose dependent manner
same,FK 506 inhibitory effect on lymphocyte proliferation after Con A,[15],increases FK 506 inhibitory effect

# From patent publication US20090325906A1, “Methods and compositions for therapeutic treatment” (priority 2008, published 2009)
